Reference: US7705153B2, “Bipiperdine derivatives useful as CCR3 antagonists” (Schering Corporation, priority 2004, dated 2010)

Tests used:
human CCR3 [1] = target: T1, human CCR3 (Homo sapiens, UniProt P51677); experiment: Intracellular calcium (Calcium flux, FLIPR) assay in CREM3 cells; type: cell-based; parameters: expressed in transfected cells; host or cells: CREM3 cells (rat Y3 cell line stably expressing human CCR3); conditions: CREM3 cells (human CCR3 in rat Y3 cell line)
T1 sequence (P51677 1-355): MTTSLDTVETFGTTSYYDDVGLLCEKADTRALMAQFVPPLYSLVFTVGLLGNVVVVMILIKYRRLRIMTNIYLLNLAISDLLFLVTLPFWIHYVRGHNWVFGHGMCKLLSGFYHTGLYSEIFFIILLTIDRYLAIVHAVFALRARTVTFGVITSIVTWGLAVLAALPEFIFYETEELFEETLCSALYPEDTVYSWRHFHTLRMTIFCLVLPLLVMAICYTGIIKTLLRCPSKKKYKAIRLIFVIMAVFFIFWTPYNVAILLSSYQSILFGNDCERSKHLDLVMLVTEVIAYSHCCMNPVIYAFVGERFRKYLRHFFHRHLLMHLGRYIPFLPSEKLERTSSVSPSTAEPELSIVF
Protocol: An IC50 value was interpolated from the dilution series for each compound and used to calculate a Ki value using the following equation: Ki=IC50/(1+[ligand]/Kd) Intracellular Calcium Assay: Cell Culture:
CREM3 cells, in which the human CCR3 receptor is stably expressed in the rat Y3 cell line, were cultured in DMEM high glucose containing 10% FBS, 50 U/ml penicillin, 50 μg/ml streptomycin, 2 mM L-glutamine, 1 mg/ml G418 (Gemini Bioproducts). Cells were cultured in fresh medium every 2 days.
Intracellular calcium levels were measured using a fluorometric imaging plate reader (FLIPR), (Molecular Devices, Sunnyvale Calif.) as described by the manufacturer. CREM3 cells were cultured overnight at 20,000 cells/well in 96 well black-wall clear bottom plates (Packard), precoated with 100 μg/ml poly D-lysine hydrobromide (Sigma). Adherent CREM3 cells were loaded with 4 μM Fluo-3 AM (Molecular Probes, Eugene, Oreg.), in pH 7.4 HBSS without phenol red, containing 20 mM HEPES, 0.5% FBS, 2.5 mM probenecid (Sigma), 0.04% pluronic acid (Molecular Probes) for 1 h at 37° C. […] Fluorescence data was collected at 1 s interval for 60 s, followed by collection at 2 s intervals for 60 s. Background fluorescence was quantitated in wells containing cells but no chemokines and was subtracted from all experimental samples. […]

human CCR3 [2] = target: T1, human CCR3; experiment: CCR3 SPA-based receptor binding assay; parameters: host or cells: Y3 cell line (rat), selected with G418; conditions: [125I]-eotaxin competition, membranes from human CCR3 transfected Y3 cell line
Protocol: CCR3 SPA-Based Receptor Binding Assay:
The procedure used was disclosed in Dairaghi et al, J. Biol. Chem., 272 (1997), pg. 28206-28209, and is described in detail below.
The source of the CCR3 receptors for this assay was purified membranes from a human CCR3 transfected Y3 cell line. Membranes were prepared by MDS Pharma Services (Bothell, Wash.) as follows. Cells were grown under selection (1 mg/ml G418) in 50-stack cube bioreactors with minimal media recirculation. Cells were harvested with trypsin and washed once with PBS. Cells were resuspended in 20 volumes of ice cold 2.5 mM Tris-HCl, pH 7.4 containing protease inhibitors (0.3 mM PMSF, 3 μg/ml aprotinin, 3 μg/ml luepeptin) and incubated on ice for 15 min. The swollen cells were lysed by vigorous vortexing and large debris was removed by centrifugation (1200 rpm, 5 min., 4° C.). The cleared lysate was subjected to ultra-centrifugation (100,000×g, 1 hr., 4° C.) to pellet the membrane fraction and the membrane fraction was resuspended in 25 mM HEPES, pH 7.6, 75 mM NaCl, 1 mM EDTA. Protease inhibitors were added as described above after a sample was removed for protein determination. The membrane preparation was brought to 6 to 10 mg/ml final concentration and BSA was added to 0.5%. Membranes were stored in 1 ml aliquots (−70° C.). […]

IC50 (human CCR3 [1]): 3.6 nM | Ki (human CCR3 [2]): 2.8 nM
Structure (SMILES): COc1ccc(C(=O)N2CCC(N3CC[C@@H](Cc4ccc(Cl)c(Cl)c4)[C@@H](CO)C3)CC2)c2cccnc12 (relative stereo) [Example 2-EE]
